One experiment concerns yeast-induced pyrexia. Put plainly: Anti-pyretic studies, brewer's yeast-induced pyrexia. The format is in vivo, Albino rats. To be noted: for activity against yeast-induced hyperthermia: 10 and 20 mg/kg s.c., 30, 60, and 120 min. As to the method:
(§1) Albino rats (180–200 g) of either sex were used in all experiments. The animals were kept under standard laboratory conditions (25 °C and light/dark cycles, i.e., 12/12 h) and were fed with standard food and water ad libitum.
Albino rats of either sex weighing 180–200 g were used for anti-pyretic studies. The animals were divided into five groups with each group having six albino rats (n = 6). All the animals were given free access to food and water. Basal rectal temperature was measured using a digital clinical thermometer before injecting the yeast. Hyperthermia was induced in rats by sub-cutaneous (s.c.) injection of 20% aqueous suspension of brewer’s yeast (20 ml/ kg) in the back below the nape of the neck ([Loux et al., 1972]). Group 1 was treated with normal saline as a control, and group 2 was treated with indomethacin (10 mg/kg, s. c) as the standard drug, while the remaining groups 3–5 were treated with compound 1–5 (10 mg/ kg and 20 mg/ kg, s. c). After 24 h from the yeast injection, the rise in the rectal temperature was recorded at regular intervals of 30, 60, and 120 min after drug administration.

For experiment [1], the system named is promastigotes of Leishmania tropica (clinical field isolate KWH23). Put plainly: Anti-leishmanial assay on promastigotes. The format is cell-based. To be noted: for anti-leishmanial properties: at all four tested concentrations, 48 h. As to the method:
The initial culture was raised in the 5 ml M-199 medium supplemented with 10% heat-inactivated fetal bovine serum (HI-FBS), 100 μg/ ml penicillin, 100 μg/ ml streptomycin, 50 μg/ ml kanamycin, and 5 μg/ ml of hemin in a 15-ml culture flask. The culture flask was kept in an incubator at 26°C, and the medium was changed every third day. The cultures were given enough time (10–14 days) to fully develop and promastigotes to reach the metacyclic stage. The culture was then sub-passaged by pouring the contents of the flask containing the promastigotes into a centrifuge tube. The tubes were then spun in a Sigma centrifuge at 2000 rpm for 12 min. After spinning, the medium was carefully poured off leaving the pellet only. This pellet was re-suspended in the 2–4 ml growth medium, and new cultures were established. The primary culture was used for sensitivity assays, and additional cultures were cryopreserved in liquid nitrogen at −196°C for future use.
The culture of L. tropica clinical field isolate KWH23 was established from already cryopreserved collection in the Department of Zoology, University of Peshawar. The initial culture was raised in the 5 ml M-199 medium supplemented with 10% heat-inactivated fetal bovine serum (HI-FBS), 100 μg/ ml penicillin, 100 μg/ ml streptomycin, 50 μg/ ml kanamycin, and 5 μg/ ml of hemin in a 15-ml culture flask. Two experiments were run at a time under the same conditions in 96-well flat-bottom plates. The promastigotes were counted in culture suspension by using the improved Neubauer hemocytometer. From the viable promastigotes bulk culture (4 × 10^6/ ml), 1 × 10^5 promastigotes/well in the 200 µL fresh M-199 medium were seeded in 96-well plates. Four different concentrations for each compound were applied, and one row of 12 wells was kept as a control with the growth medium only. The 96-well plates were incubated at 26°C for 48 h. After 48 h, the number of promastigotes in each well was counted microscopically using the improved Neubauer hemocytometer.

Experiment [2] relates to carrageenan-induced paw edema. The experiment is described as follows: Carrageenan-induced paw edema studies. The format is in vivo, Albino rats. The conditions noted are these: for percent inhibition of carrageenan-induced paw edema: right after the carrageenan injection, p < 0.05. As to the method: as §1
Albino rats of either sex (180–200 g) were used to assess anti-inflammatory activity. The animals were randomly divided into five groups with each group having six albino rats (n = 6). Pedal inflammations in albino rats of either sex were produced according to the method described by Winter et al. (1962). Group 1 was treated with normal saline (5 ml/ kg) and group 2 was treated with oxyphenylbutazone (10 mg/ kg, i.p.), while groups 3–5 were treated with compounds 1–5 (10 mg/ kg and 20 mg/ kg, i.p.). After 30 min, 0.05 ml 1% carrageenan sodium salt (BDH) was subcutaneously injected into the plantar aponeurosis tissue of the right hind paw of each rat. The inflammation was measured using a plethysmometer (Apelex, France) immediately after +3 h of carrageenan injection. The anti-inflammatory activity was calculated using the following formula: 100(1−a−x/b−y), where “b” is the mean paw volume of control rats after carrageenan injection and “y” before the injection; whereas “x” is the mean paw volume of treated rats before injection and “a” is the mean paw volume after carrageenan injection.
Background: In the carrageenan paw model, swelling and tenderness develop within hours.

The values below come from PMC8719521, “Spectral, Anti-Inflammatory, Anti-Pyretic, Leishmanicidal, and Molecular Docking Studies, Against Selected Protein Targets, of a New Bisbenzylisoquinoline Alkaloid” (Frontiers in Chemistry, 2021).

As for `COc1cc2c3cc1Oc1c(O)ccc(c1O)CC1c4c(cc(OC)c(OC)c4Oc4ccc(cc4)CC3N(C)CC2)CCN1C` (centres unmarked) [Compound 1, chondrofolinol], the “rectal temperature in yeast-induced pyrexia” value in the experiment with yeast-induced pyrexia (10 and 20 mg/kg of body weight) is recorded as “significantly reduced”. In addition, the “activity against yeast-induced hyperthermia” value (“activity” for short) in the experiment with yeast-induced pyrexia is on record as “significantly active”. In the experiment with yeast-induced pyrexia (at both concentrations (10 and 20 mg/kg)), the anti-pyretic potential result is “milder anti-pyretic potential”. In experiment [1] (48 h incubation), the “inhibition of the promastigotes of Leishmania tropica” value is listed as approximately 100%. The anti-leishmanial properties entry in experiment [1] is given as “strong anti-leishmanial properties”. In addition, the “percent inhibition of carrageenan-induced paw edema” value in experiment [2] (10 mg/kg of chondrofolinol) is recorded as 32.12%; in experiment [2] (20 mg/kg of chondrofolinol), 53.34%. The “paw volume in carrageenan-induced paw edema” value in experiment [2] (10 and 20 mg/kg of body weight) is “significantly reduced”.
`COc1ccc2cc3[n+](cc2c1OC)CCc1cc2c(cc1-3)OCO2` [Compound 2, berberine]: the “activity” value in the experiment with yeast-induced pyrexia is given as “significantly active”. Besides, the anti-leishmanial properties entry in experiment [1] is given as “strong anti-leishmanial properties”.
As to `COc1cc2c(cc1OC)-c1cc3ccc(OC)c(OC)c3c[n+]1CC2` [Compound 4, palmatine], in the experiment with yeast-induced pyrexia, the “activity” value is “significantly active”. Also, the anti-leishmanial properties result in experiment [1] was “strong anti-leishmanial properties”.
Turning to `COc1ccc2c(c1OC)C(C(Cl)(Cl)Cl)N1CCc3cc4c(cc3C1=C2)OCO4` (centres unmarked) [Compound 5, 8-trichloromethyldihydroberberine], the “activity” value in the experiment with yeast-induced pyrexia is “significantly active”. Also, the anti-leishmanial properties entry in experiment [1] is “strong anti-leishmanial properties”.
